Results taken from paper PMC7269032, “Chiral 4-O-acylterpineol as transdermal permeation enhancers: insights of the enhancement mechanisms of a transdermal enantioselective delivery system for flurbiprofen” (Drug Delivery, 2020).

Experiments:
[1] = In vitro permeation experiment of FP drug-in-adhesive patches in two-chamber diffusion cells; assay type: in vitro ADME, rabbit; details: for ER (Q24h with enhancer/Q24h without enhancer) for R-FP / Tlag of R-FP / Js of R-FP: permeant R-FP; for ER (Q24h with enhancer/Q24h without enhancer) for R-FP / Tlag of R-FP / Js of R-FP / ER (Q24h with enhancer/Q24h without enhancer) for S-FP / Tlag of S-FP / Js of S-FP / ER (Q24h with enhancer/Q24h without enhancer) for SR-FP / Tlag of SR-FP / Js of SR-FP: patch 5% drug (w/w); for ER (Q24h with enhancer/Q24h without enhancer) for R-FP / ER (Q24h with enhancer/Q24h without enhancer) for S-FP / ER (Q24h with enhancer/Q24h without enhancer) for SR-FP: enhancer equimolar to 5% 4-TER; for Tlag of R-FP / Js of R-FP / Tlag of S-FP / Js of S-FP / Tlag of SR-FP / Js of SR-FP: enhancer equimolar to 5% 4-TER (control: no enhancer); for Js of R-FP / Js of S-FP / Js of SR-FP: mean ± SD, n = 4; for ER (Q24h with enhancer/Q24h without enhancer) for S-FP / Tlag of S-FP / Js of S-FP: permeant S-FP; for ER (Q24h with enhancer/Q24h without enhancer) for SR-FP / Tlag of SR-FP / Js of SR-FP: permeant SR-FP
Source text: Male, Japanese big-eared rabbits weighting 2.5–3.0 kg were purchased from the animal experimental center of North China University of Science and Technology. The experimental process was in accordance with the ‘Ethical Guide for Laboratory Animal Investigation’ and was approved by the Animal Experimental Center Committee of North China University of Science and Technology. All efforts were made to minimize animal suffering and to limit the number of animals used.
The hair of back skin was removed by clipper and electrical shaver carefully when the rabbits were anesthetized with ether. Full thickness of back skin was excised after the rabbit was sacrificed by injecting air into the ear veins, and the subcutaneous fat tissue was carefully removed using the surgical scissor and scalpel. The integrity of the skin was confirmed by microscopic observation method. The treated rabbit skin was cut into a size of 1.5 cm × 1.5 cm and stored at –80 °C until use. Before use, it needed to be immersed in physiological saline for 20 min to thaw.
Drug-in-adhesive patch (drug loading of 5% by adhesive) was prepared by using solvent evaporation method. An appropriate amount of FP was dissolved in a suitable amount of ethyl acetate, which was later added to the adhesive and mixed thoroughly with a mechanical stirrer. The resulting solution was coated onto release liner (Scotch Pak® 9744, 3M, USA) by using lab coating unit (6025, BLD Instruments Co. Ltd., Guangdong, China). The coated laminate was dried at 50 °C for 15 min. After the solvent had been removed, it was covered with backing laminate (Scotch Pak® 9732, 3M).
Modified two-chamber diffusion cells with an effective diffusion area of 0.95 cm^2 were employed in the in vitro permeation experiment. The cells were kept at 32 °C by the circulated water bath and stirred with magnetic bars at 400 rpm. The dermis side of the skin was attached to one-half of the side-by-side diffusion cells, the FP patch was pressed on the skin with the adhesive side facing the SC, and pH 7.4 PBS was used as the receptor medium. At predetermined time points (2, 4, 6, 8, 10, 12 and 24 h), the receptor solution of 2.0 mL was withdrawn and equal volume PBS was added to maintain a constant volume of receptor solution.
The cumulative amount of each drug permeating per unit area (Q) versus time was plotted. Q24h=(3.5Ci+2.0∑i=1n−1Ci−1)/A
Q was the cumulative skin permeation amount. Ci was the concentration in the receiver compartment at time i, A was the effective diffusion area of diffusion.
The steady-state flux (Js, µg/cm^2/h) was calculated from the slope of linear region of the plot. The lag-time was determined by extrapolating the linear portion of the curve to the abscissa. Js=dQr/Adt
Enhancement ratio (ER) was used to evaluate the activity of the enhancers, which is the ratio of Q24h with enhancer to Q24h without enhancer. ER=Q24h(with enhancer)/Q24h(without enhancer)

[2] = In vivo pharmacokinetic study, transdermal patch administration; parameters: species or system rabbit; details: rabbits, SR-FP patch with 5% enhancer or without (control); for V of R-FP: analyte R-; for V of S-FP: analyte S-
Experimental: Thirty-six male rabbits weighing 2.5 kg were divided into six groups, and the back skin was intact without erythema. For patch administration studies, patches without or with enhancers (120 mg/kg) were stuck to the shaved area of the rabbits. They were administered as follows: (1) control group: only the SR-FP; (2) enhancer group A: prepared SR-FP patch with 5% d-4-TER; (3) enhancer group B: prepared SR-FP patch with 5% d-4-T-dC18; (4) enhancer group C: prepared SR-FP patch with 5% l-4-T-dC18; (5) enhancer group D: prepared S-FP patch with 5% d-4-T-dC18; (6) enhancer group E: prepared R-FP patch with 5% d-4-T-dC18. In order to prevent the patches fallen off, gauze and medical tape were used to fix the patches. The blood from ear vein of rabbit was collected 0.5 mL at 0.5, 1, 2, 4, 6, 8, 12, 16, 20, 24, 26, 28, 30, 32, 36 and 48 h, and the patch was removed after 24 h, then the residual drug was wiped with physiological saline. The sample was processed by the same method as IV. All animal studies were carried out in accordance with the NIH Guidelines for the Care and Use of Laboratory Animals and were also approved by the Life Science Research Center of North China University of Science and Technology.
After being thawed and equilibrated to room temperature, an aliquot (100 μL) of plasma sample was spiked with […] (10 μL) of 40.0 μg/mL and 400 μL methanol. The samples were vortexed for 5 min and followed by centrifugation at 16,000 rpm for 10 min at 25 °C. After centrifugation, the supernatant was transferred to a clean tube and evaporated to dryness at 40 °C under a gentle stream of nitrogen. The dried samples were reconstituted with 100 μL mobile phase, vortexed and centrifuged before analysis.
Pharmacokinetic parameters were calculated using WinNonlin® software (Pharsight Corporation, San Diego, CA, USA) based on noncompartmental model, including the maximal plasma drug concentration (Cmax), the time to reach Cmax (Tmax) which were obtained from the observed data, the area under the time–concentration curve from time 0 to time t (AUC0–t) of distribution which was calculated using the linear trapezoidal rule, the mean residence time (MRT), the plasma clearance (Cl) and the apparent volume(V). Enhancement factor (Ef) was calculated from the following equation: Ef=AUC0−t(with enhancer)/AUC0−t(without enhancer)
The concentrations of drugs in the receptor medium or rabbit plasma were determined using a validated HPLC method. The HPLC system was equipped with a Shimadzu HPLC apparatus, including an LC-20AT pump, a SIL20A syringe, an SPD-20A detector, and a CTO-20A column oven. The propylparaben was used as an internal standard, and the flow rate of chromatographic analysis was set 1.0 mL/min. For in vitro analysis of SR-FP, thermo (USA) C18 column (150 mm × 4.6 mm, 5 μm particle) maintained at 40 °C was used to elute SR-FP, the mobile phase was used methanol and 1% aqueous glacial acetic acid (60:40, v/v) and the wavelength was set at 247 nm. The HPLC conditions of S-FP and R-FP were as follows: The column was CHIRALPAK®IA (4.6 mm × 250 mml, 5 μm particle diameter) of DAOCEL (Shanghai, China). The mobile phase consisted of acetonitrile and trifluoroacetic acid (0.05%, 50:50, v/v), the wavelength was set at 254 nm. For in vivo analysis of S-FP and R-FP, the mobile phase consisted of acetonitrile and trifluoroacetic acid (0.05%, 35:65, v/v), and other conditions were the same to in vitro analysis.
Absolute bioavailability (F) was calculated by the following equation: F=AUCpatch·Dosei.v./AUCi.v.·Dosepatch

Structure (SMILES) | ER (Q24h with enhancer/Q24h without enhancer) for R-FP [1] | Tlag of R-FP [1] | Js of R-FP [1] | ER (Q24h with enhancer/Q24h without enhancer) for S-FP [1] | Tlag of S-FP [1] | Js of S-FP [1] | ER (Q24h with enhancer/Q24h without enhancer) for SR-FP [1] | Tlag of SR-FP [1] | Js of SR-FP [1] | V of R-FP [2] | V of S-FP [2] | cumulative transport of SR-FP at 24 h ([1]; 3% enhancer level (w/w)) | cumulative transport of SR-FP at 24 h ([1]; 5% enhancer level (w/w)) | Q24h of SR-FP ([1]; enhancer at same molar concentration as 5% 4-TER)
CCCCCCCCC=CCCCCCCCC(=O)OC1(C(C)C)CC=C(C)CC1 (stereo not drawn) [d-4-T-dC18, d-4-methyl-1-(1-methylethyl)-3-cyclohexen-1-yl octadec-9-enoate] | 4.43 | 3.95 h | 11.81 ± 1.23 μg/cm^2/h | 4.13 | 4.08 h | 10.99 ± 2.17 μg/cm^2/h | 2.77 | 1.85 h | 17.57 ± 4.13 μg/cm^2/h | 139.60 ± 34.29 L | 92.94 ± 28.69 L | – | – | –
CCCCCCCCCCCCCC(=O)OC1(C(C)C)CC=C(C)CC1 (stereo not drawn) [l-4-T-C14, l-4-methyl-1-(1-methylethyl)-3-cyclohexen-1-yl tetradecanoate] | 2.92 | 3.51 h | 7.62 ± 1.49 μg/cm^2/h | 2.73 | 3.37 h | 6.80 ± 0.50 μg/cm^2/h | 1.92 | 2.45 h | 11.83 ± 6.27 μg/cm^2/h | – | – | – | – | –
CCCCCCC(=O)OC1(C(C)C)CC=C(C)CC1 (stereo not drawn) [d-4-T-C7, d-4-methyl-1-(1-methylethyl)-3-cyclohexen-1-yl heptanoate] | 1.96 | 2.40 h | 4.40 ± 1.42 μg/cm^2/h | 1.69 | 2.91 h | 4.39 ± 0.49 μg/cm^2/h | 2.14 | 3.74 h | 14.46 ± 1.52 μg/cm^2/h | – | – | – | – | –
CCCCCCCCCCCCCC(=O)OC1(C(C)C)CC=C(C)CC1 (stereo not drawn) [d-4-T-C14, d-4-methyl-1-(1-methylethyl)-3-cyclohexen-1-yl tetradecanoate] | 3.19 | 3.98 h | 8.16 ± 0.84 μg/cm^2/h | 3.53 | 2.04 h | 7.75 ± 1.68 μg/cm^2/h | 2.85 | 3.58 h | 18.79 ± 3.81 μg/cm^2/h | – | – | – | – | –
CC1=CC[C@@](O)(C(C)C)CC1 [l-4-TER, l-4-terpineol, reference compound] | 2.64 | 3.82 h | 6.99 ± 1.12 μg/cm^2/h | 2.25 | 4.07 h | 6.02 ± 0.99 μg/cm^2/h | 1.81 | 3.13 h | 11.43 ± 2.06 μg/cm^2/h | – | – | 145.16 ± 13.64 μg/cm^2 | 222.09 ± 19.19 μg/cm^2 | –
CCCCCCC(=O)OC1(C(C)C)CC=C(C)CC1 (stereo not drawn) [l-4-T-C7, l-4-methyl-1-(1-methylethyl)-3-cyclohexen-1-yl heptanoate] | 1.38 | 2.11 h | 3.19 ± 0.47 μg/cm^2/h | 1.10 | 4.18 h | 3.00 ± 0.69 μg/cm^2/h | 1.35 | 2.96 h | 6.58 ± 1.41 μg/cm^2/h | – | – | – | – | –
CCCCCCCCC=CCCCCCCCC(=O)OC1(C(C)C)CC=C(C)CC1 (stereo not drawn) [l-4-T-dC18, l-4-methyl-1-(1-methylethyl)-3-cyclohexen-1-yl octadec-9-enoate] | 4.6 | 3.68 h | 12.04 ± 2.51 μg/cm^2/h | 4.98 | 3.89 h | 12.98 ± 3.51 μg/cm^2/h | 4.45 | 3.61 h | 20.53 ± 3.11 μg/cm^2/h | 65.31 ± 28.90 L | 68.51 ± 17.97 L | – | – | 547.20 ± 35.94 μg/cm^2
